From patent publication US9169241B2, “Quinolinyloxyphenylsulfonamides” (Max-Planck-Gesellschaft Zur Forderung der Wissenschaften …, priority 2009, dated 2015)

Assays:
[1] = biological target: T1, wild type AXL (wtAXL) receptor tyrosine kinase (Homo sapiens, UniProt P30530); assay: NIH-3T3-AXL cellular kinase assay (pY-AXL-ELISA); type: cell-based; conditions: NIH-3T3-AXL (clone 22) cells, serum depleted, compounds 1 h; Table Ia
T1 construct: WtAXL cDNA was cloned into vector pLXSN(ESK) and transfected into Phoenix E packaging cells; expressed in transfected cells; host or cells: NIH3T3 N7 (mouse fibroblasts), retrovirally infected, clone 22
T1 sequence (P30530 26-894): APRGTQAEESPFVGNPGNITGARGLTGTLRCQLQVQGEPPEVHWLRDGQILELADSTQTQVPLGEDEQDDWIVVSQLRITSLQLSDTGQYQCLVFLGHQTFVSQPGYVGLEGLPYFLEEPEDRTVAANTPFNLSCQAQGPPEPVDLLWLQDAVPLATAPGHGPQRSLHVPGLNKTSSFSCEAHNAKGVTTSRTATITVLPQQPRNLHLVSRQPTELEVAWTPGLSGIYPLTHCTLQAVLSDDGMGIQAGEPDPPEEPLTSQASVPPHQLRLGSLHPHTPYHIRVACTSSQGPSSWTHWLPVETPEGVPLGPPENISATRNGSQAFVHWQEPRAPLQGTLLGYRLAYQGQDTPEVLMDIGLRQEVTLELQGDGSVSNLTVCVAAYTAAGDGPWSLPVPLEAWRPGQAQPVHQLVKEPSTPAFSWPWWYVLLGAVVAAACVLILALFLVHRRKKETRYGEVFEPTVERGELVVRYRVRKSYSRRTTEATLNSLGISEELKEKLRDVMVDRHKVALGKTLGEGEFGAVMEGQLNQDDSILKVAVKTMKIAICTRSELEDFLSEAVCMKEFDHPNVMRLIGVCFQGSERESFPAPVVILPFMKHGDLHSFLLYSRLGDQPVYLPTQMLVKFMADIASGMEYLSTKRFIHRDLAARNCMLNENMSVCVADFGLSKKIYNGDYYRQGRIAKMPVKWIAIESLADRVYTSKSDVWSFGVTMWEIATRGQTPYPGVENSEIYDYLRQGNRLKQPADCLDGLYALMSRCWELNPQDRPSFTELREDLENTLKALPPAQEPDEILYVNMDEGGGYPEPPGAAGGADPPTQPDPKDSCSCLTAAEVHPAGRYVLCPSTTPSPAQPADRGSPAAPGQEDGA
In short: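 NIH3T3 cells stably expressing human wild-type AXL (retroviral, puromycin-selected clones) were treated with serial compound dilutions for 1 h and lysed. AXL tyrosine phosphorylation was measured by ELISA on the lysates: biotinylated 4G10 anti-phosphotyrosine, streptavidin-alkaline phosphatase, AttoPhos fluorescence at 430/560 nm after 90 min.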

Hs578T [2] = assay: Cell vitality assay (ATP assay, CellTiter-Glo); type: cell-based; conditions: Homo sapiens, Hs-578T; HS578T cell line, 72 h; Table Ib; read-out: IC50 ATP-Assay HS578T after 72 h
In short: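 1000 cells/well were exposed to compound at 12.5 μM down to 0.195 μM (twofold steps) or DMSO for 72 h. ATP was then measured by luminescence after 10 min reagent lysis at room temperature. IC50 was taken as the concentration giving 50% of the DMSO-control ATP level.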

Hs578T [3] = assay: Matrigel outgrowth assay/branching assay; type: cell-based; conditions: Homo sapiens, Hs-578T; HS578T cell line; Table Ib; read-out: Total branching inhibition in Matrigel HS578T
In short: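 Read-out: microscopic images of invasive branching structures at 48 h, 72 h and 96 h. Cells sat on a 3 mg/ml Matrigel layer (set 1 h, 37° C) with compound at 3.125, 1.56 and 0.78 μM or DMSO. A concentration counts as positive only with complete branching inhibition.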

Hs578T [4] = assay: Wound healing migration assay; type: cell-based; conditions: Homo sapiens, Hs-578T; HS578T cell line; Table Ib
In short: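 Cells seeded at 150000/24 well, grown to monolayer overnight, scratched with a pipette tip, then treated with compound at 12.5, 6.25 or 3.125 μM versus DMSO. Stopped by crystal violet fixation at 48-72 h once control wounds closed; IC50 taken as 50% wound size between t0 and t48 or t72.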

Structure (SMILES)	IC50 [1] [µM]	melting point [°C]	IC50 (Hs578T [4]) [µM]	IC50 (Hs578T [2]) [µM]	IC50 (Hs578T [3]) [µM]
COc1cc2c(Oc3ccc(NS(=O)(=O)c4ccc(F)c(F)c4)cc3F)ccnc2cc1OCCCN1CCCC(C)C1 (stereo not shown) [Example 48, 3,4-Difluoro-N-(3-fluoro-4-{6-methoxy-7-[3-(3-methyl-piperidin-1-yl)-propoxy]-quinolin-4-yloxy}-phenyl)-benzenesulfonamide]	< 0.5	120 to 122	≤ 12.5	≤ 12.5	10 to 25
COc1cc2c(Oc3ccc(NS(=O)(=O)c4cccc(OC(F)(F)F)c4)cc3F)ccnc2cc1OCCCN1CCCC(C)C1 (stereo not shown) [Example 46, N-(3-Fluoro-4-{6-methoxy-7-[3-(3-methyl-piperidin-1-yl)-propoxy]-quinolin-4-yloxy}-phenyl)-3-trifluoromethoxy-benzenesulfonamide]	< 0.5	102 to 104	≤ 12.5	≤ 12.5	≤ 10
COc1cc2c(Oc3ccc(NS(=O)(=O)c4ccc(Cl)s4)cc3F)ccnc2cc1OCCCN(C)C [Example 182, 5-Chloro-thiophene-2-sulfonic acid {4-[7-(3-dimethylamino-propoxy)-6-methoxy-quinolin-4-yloxy]-3-fluoro-phenyl}-amide]	< 0.5	130 to 132	≤ 12.5	≤ 12.5	10 to 25
COc1cc2c(Oc3ccc(NS(=O)(=O)c4c(F)cccc4F)cc3OC)ccnc2cc1OCCCN1CCC(C)CC1 [Example 173, 2,6-Difluoro-N-(3-methoxy-4-{6-methoxy-7-[3-(4-methyl-piperidin-1-yl)-propoxy]-quinolin-4-yloxy}-phenyl)-benzenesulfonamide]	0.5 to 3	98 to 101	12.5 to 50	≤ 12.5	10 to 25
COc1cc2c(Oc3ccc(NS(=O)(=O)c4ccc(Cl)s4)cc3F)ccnc2cc1OCCCN1CCCCC1C (stereo not shown) [Example 145, 5-Chloro-thiophene-2-sulfonic acid (3-fluoro-4-{6-methoxy-7-[3-(2-methyl-piperidin-1-yl)-propoxy]-quinolin-4-yloxy}-phenyl)-amide]	< 0.5	118 to 120	≤ 12.5	≤ 12.5	10 to 25

Continued, in another order:

IC50 [1] [µM]	melting point [°C]	IC50 (Hs578T [4]) [µM]	Structure (SMILES)	IC50 (Hs578T [2]) [µM]	IC50 (Hs578T [3]) [µM]
< 0.5	160 to 161	12.5 to 50	COc1cc2c(Oc3ccc(NS(=O)(=O)c4ccccc4)cc3F)ccnc2cc1OCCCN1CCCC(C)C1 (stereo not shown) [Example 36, N-(3-Fluoro-4-{6-methoxy-7-[3-(3-methyl-piperidin-1-yl)-propoxy]-quinolin-4-yloxy}-phenyl)-benzenesulfonamide]	≤ 12.5	10 to 25
< 0.5	196 to 197	12.5 to 50	COc1cc2c(Oc3ccc(NS(=O)(=O)c4csc5ccccc45)cc3F)ccnc2cc1OCCCN1CCOCC1 [Example 114, Benzo[b]thiophene-3-sulfonic acid {3-fluoro-4-[6-methoxy-7-(3-morpholin-4-yl-propoxy)-quinolin-4-yloxy]-phenyl}-amide]	≤ 12.5	10 to 25
< 0.5	105 to 106	12.5 to 50	COc1cc2c(Oc3ccc(NS(=O)(=O)c4cccc(OC(F)F)c4)cc3F)ccnc2cc1OCCCN1CCCCC1 [Example 9, 3-Difluoromethoxy-N-{3-fluoro-4-[6-methoxy-7-(3-piperidin-1-yl-propoxy)-quinolin-4-yloxy]-phenyl}-benzenesulfonamide]	≤ 12.5	10 to 25
